According to ChEMBL document CHEMBL4229519, “Design, synthesis, and activity evaluation of novel erythropoietin mimetic peptides” (Bioorg Med Chem Lett, 2018):
Bridge positions count the residues as written; N and C are the ends. Square brackets hold non-standard residues; d marks the D form. Peptide text beside a SMILES is read from it. 1Nal = N[C@@H](Cc1cccc2ccccc12)C(=O)O; Cit = NC(=O)NCCC[C@H](N)C(=O)O; NMeA = CN[C@@H](C)C(=O)O; Sar = CNCC(=O)O

Key:
Mus musculus [1] = experiment: Toxicity in mouse assessed as increase in body weight at 2.1 umol/kg, sc administered once daily for 7 consecutive days measured on day 7 during compound dosing relative to control; assay type: organism-based; conditions: in vivo
Mus musculus [2] = experiment: Antianemic activity in mouse assessed as hematocrit by measuring ratio of RBC volume to total blood volume at 2.1 umol/kg, sc administered once daily for 7 consecutive days (reference value: 0.476 +/- 0.024); assay type: functional
Mus musculus [3] = experiment: Toxicity in mouse assessed as increase in body weight at 2.1 umol/kg, sc administered once daily for 7 consecutive days measured on day 5 during compound dosing relative to control; assay type: organism-based; conditions: in vivo
Mus musculus [4] = experiment: Antianemic activity in mouse assessed as RBC level at 2.1 umol/kg, sc administered once daily for 7 consecutive days (reference value: 8.74 +/- 0.58 10^12/L); assay type: functional
Mus musculus [5] = experiment: Toxicity in mouse assessed as increase in body weight at 2.1 umol/kg, sc administered once daily for 7 consecutive days measured on day 3 during compound dosing relative to control; assay type: organism-based; conditions: in vivo
Mus musculus [6] = experiment: Toxicity in mouse assessed as body weight at 2.1 umol/kg, sc administered once daily for 7 consecutive days measured on day 1 during compound dosing (reference value: 24.5 +/- 1.1 g); assay type: organism-based; conditions: in vivo
Mus musculus [7] = experiment: Antianemic activity in mouse assessed as hemoglobin level at 2.1 umol/kg, sc administered once daily for 7 consecutive days (reference value: 135.1 +/- 9.5 g/L); assay type: functional
Mus musculus [8] = experiment: Effect on WBC level in mouse at 2.1 umol/kg, sc administered once daily for 7 consecutive days (reference value: 5.84 +/- 1.43 10^9/L); assay type: ADME, organism-based; conditions: in vivo
Mus musculus [9] = experiment: Antianemic activity in mouse assessed as reticulocyte level at 2.1 umol/kg, sc administered once daily for 7 consecutive days (reference value: 0.46 +/- 0.11 10^12/L); assay type: functional
Erythropoietin receptor = target: T1, Erythropoietin receptor (Homo sapiens, UniProt P19235); experiment: Agonist activity at EPO receptor in human TF1 cells assessed as induction of cell proliferation after 48 hrs by MTT assay; assay type: cell-based
T1 sequence (P19235 whole entry): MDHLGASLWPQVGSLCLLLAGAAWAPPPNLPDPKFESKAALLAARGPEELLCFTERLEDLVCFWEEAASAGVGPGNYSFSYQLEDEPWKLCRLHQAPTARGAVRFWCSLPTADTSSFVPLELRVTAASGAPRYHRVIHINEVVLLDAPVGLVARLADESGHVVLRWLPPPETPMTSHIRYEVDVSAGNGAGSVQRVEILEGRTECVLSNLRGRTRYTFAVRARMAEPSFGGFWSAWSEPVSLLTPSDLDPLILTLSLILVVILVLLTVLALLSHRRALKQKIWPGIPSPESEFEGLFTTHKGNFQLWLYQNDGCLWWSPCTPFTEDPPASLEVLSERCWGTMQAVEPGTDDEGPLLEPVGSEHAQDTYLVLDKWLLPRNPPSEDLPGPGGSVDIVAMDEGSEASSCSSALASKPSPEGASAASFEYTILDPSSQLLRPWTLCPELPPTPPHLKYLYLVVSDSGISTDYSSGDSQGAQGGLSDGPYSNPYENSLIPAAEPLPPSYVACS

Structure (SMILES) | Activity (Mus musculus [1]) | Ratio (Mus musculus [2]) | Activity (Mus musculus [3]) | Activity (Mus musculus [4]) | Activity (Mus musculus [5]) | Activity (Mus musculus [6]) | Activity (Mus musculus [7]) | Activity (Mus musculus [8]) | Activity (Mus musculus [9]) | EC50 (Erythropoietin receptor)
CC[C@H](C)[C@@H]1NC(=O)[C@@H]2CCCN2C(=O)CNC(=O)[C@H](CCSC)NC(=O)[C@H](Cc2cnc[nH]2)NC(=O)[C@@H](NC(=O)[C@H](C)NC(=O)[C@H](Cc2ccc(O)cc2)NC(=O)[C@H](CC(C)C)NC(=O)CNC(=O)CNC(C)=O)CSSC[C@@H](C(=O)N[C@@H](CCC(N)=O)C(=O)N2CCC[C@H]2C(=O)N[C@@H](CC(C)C)C(=O)N[C@@H](CCCNC(N)=O)C(=O)N(C)CC(=O)N[C@@H](CCCCN)C(N)=O)NC(=O)[C@H](C(C)C)NC(=O)[C@H](Cc2cccc3ccccc23)NC(=O)[C@H]([C@@H](C)O)NC1=O (Ac-GGLYACHMGPIT[1Nal]VCQPL[Cit][Sar]K-NH2; disulfide 6-15) | 21.7% | 0.535 | 16.9% | 9.67 ×10¹² /L | 11.7% | 25.5 g | 158.1 g/L | 6.48 ×10⁹ /L | 0.89 ×10¹² /L | 
CC[C@H](C)[C@@H]1NC(=O)[C@H](C)N(C)C(=O)CNC(=O)[C@H](CCSC)NC(=O)[C@H](Cc2cnc[nH]2)NC(=O)[C@@H](NC(=O)[C@H](C)NC(=O)[C@H](Cc2ccc(O)cc2)NC(=O)[C@H](CC(C)C)NC(=O)CNC(=O)CNC(C)=O)CSSC[C@@H](C(=O)N[C@@H](CCC(N)=O)C(=O)N2CCC[C@H]2C(=O)N[C@@H](CC(C)C)C(=O)N[C@@H](CCCNC(=N)N)C(=O)N(C)CC(=O)N[C@@H](CCCCN)C(N)=O)NC(=O)[C@H](C(C)C)NC(=O)[C@H](Cc2cccc3ccccc23)NC(=O)[C@H]([C@@H](C)O)NC1=O (Ac-GGLYACHMG[NMeA]IT[1Nal]VCQPLR[Sar]K-NH2; disulfide 6-15) | 27.2% | 0.498 | 19.5% | 9.15 ×10¹² /L | 12.7% | 24.7 g | 144.4 g/L | 5.64 ×10⁹ /L | 0.66 ×10¹² /L | 
CC[C@H](C)[C@@H]1NC(=O)[C@@H]2CCCN2C(=O)CNC(=O)[C@H](CCSC)NC(=O)[C@H](Cc2cnc[nH]2)NC(=O)[C@@H](NC(=O)[C@H](C)NC(=O)[C@@H](Cc2ccc(O)cc2)NC(=O)[C@H](CC(C)C)NC(=O)CNC(=O)CNC(C)=O)CSSC[C@@H](C(=O)N[C@@H](CCC(N)=O)C(=O)N2CCC[C@H]2C(=O)N[C@@H](CC(C)C)C(=O)N[C@@H](CCCNC(=N)N)C(=O)N(C)CC(=O)N[C@@H](CCCCN)C(N)=O)NC(=O)[C@H](C(C)C)NC(=O)[C@H](Cc2cccc3ccccc23)NC(=O)[C@H]([C@@H](C)O)NC1=O |  |  |  |  |  |  |  |  |  | Not Active
CC[C@H](C)[C@@H]1NC(=O)[C@@H]2CCCN2C(=O)CNC(=O)[C@@H](CCSC)NC(=O)[C@H](Cc2cnc[nH]2)NC(=O)[C@@H](NC(=O)[C@H](C)NC(=O)[C@H](Cc2ccc(O)cc2)NC(=O)[C@H](CC(C)C)NC(=O)CNC(=O)CNC(C)=O)CSSC[C@@H](C(=O)N[C@@H](CCC(N)=O)C(=O)N2CCC[C@H]2C(=O)N[C@@H](CC(C)C)C(=O)N[C@@H](CCCNC(=N)N)C(=O)N(C)CC(=O)N[C@@H](CCCCN)C(N)=O)NC(=O)[C@H](C(C)C)NC(=O)[C@H](Cc2cccc3ccccc23)NC(=O)[C@H]([C@@H](C)O)NC1=O |  |  |  |  |  |  |  |  |  | Not Active
CC[C@H](C)[C@@H]1NC(=O)[C@@H]2CCCN2C(=O)CNC(=O)[C@H](CCSC)NC(=O)[C@H](Cc2cnc[nH]2)NC(=O)[C@@H](NC(=O)[C@H](C)NC(=O)[C@H](Cc2ccc(O)cc2)NC(=O)[C@H](CC(C)C)NC(=O)CNC(=O)CNC(C)=O)CSSC[C@@H](C(=O)N[C@@H](CCC(N)=O)C(=O)N2CCC[C@H]2C(=O)N[C@@H](CC(C)C)C(=O)N[C@@H](CCCNC(=N)N)C(=O)N(C)CC(=O)N[C@@H](CCCCN)C(N)=O)NC(=O)[C@H](C(C)C)NC(=O)[C@H](Cc2cccc3ccccc23)NC(=O)[C@H]([C@@H](C)O)NC1=O | 22.6% | 0.493 | 16.3% | 9.17 ×10¹² /L | 12.5% | 24.9 g | 149.9 g/L | 5.11 ×10⁹ /L | 0.7 ×10¹² /L | 
CC[C@H](C)[C@@H]1NC(=O)[C@@H]2CCCN2C(=O)CNC(=O)[C@H](CCSC)NC(=O)[C@H](Cc2cnc[nH]2)NC(=O)[C@@H](NC(=O)[C@H](C)NC(=O)[C@H](Cc2ccc(O)cc2)NC(=O)[C@H](CC(C)C)NC(=O)CNC(=O)CNC(C)=O)CSSC[C@@H](C(=O)N[C@@H](CCC(N)=O)C(=O)N(C)[C@@H](C)C(=O)N[C@@H](CC(C)C)C(=O)N[C@@H](CCCNC(=N)N)C(=O)N(C)CC(=O)N[C@@H](CCCCN)C(N)=O)NC(=O)[C@H](C(C)C)NC(=O)[C@H](Cc2cccc3ccccc23)NC(=O)[C@H]([C@@H](C)O)NC1=O (Ac-GGLYACHMGPIT[1Nal]VCQ[NMeA]LR[Sar]K-NH2; disulfide 6-15) | 19.1% | 0.493 | 15.3% | 9.14 ×10¹² /L | 11% | 24.7 g | 146.4 g/L | 5.45 ×10⁹ /L | 0.65 ×10¹² /L | 
CC[C@H](C)[C@@H]1NC(=O)[C@@H]2CCCN2C(=O)CNC(=O)[C@H](CCSC)NC(=O)[C@H](Cc2cnc[nH]2)NC(=O)[C@@H](NC(=O)[C@@H](C)NC(=O)[C@H](Cc2ccc(O)cc2)NC(=O)[C@H](CC(C)C)NC(=O)CNC(=O)CNC(C)=O)CSSC[C@@H](C(=O)N[C@@H](CCC(N)=O)C(=O)N2CCC[C@H]2C(=O)N[C@@H](CC(C)C)C(=O)N[C@@H](CCCNC(=N)N)C(=O)N(C)CC(=O)N[C@@H](CCCCN)C(N)=O)NC(=O)[C@H](C(C)C)NC(=O)[C@H](Cc2cccc3ccccc23)NC(=O)[C@H]([C@@H](C)O)NC1=O |  |  |  |  |  |  |  |  |  | Not Active
